Experimental findings from US11053196B2, “Substituted indoline derivatives as dengue viral replication inhibitors” (JANSSEN PHARMACEUTICALS, INC., priority 2017, dated 2021) are described below.

Data set [1] deals with DENV-2 16681 strain. As to the kind of experiment: DENV-2 antiviral assay (eGFP-labeled virus in Vero cells). In kind it is cell-based, Dengue virus. The following applies: DENV-2 16681 eGFP, MOI 0.5, 3 days. The procedure:
The antiviral activity of all the compounds of the invention was tested against the DENV-2 16681 strain which was labeled with enhanced green fluorescent protein (eGPF). The culture medium consists of minimal essential medium supplemented with 2% of heat-inactivated fetal calf serum, 0.04% gentamycin (50 mg/mL) and 2 mM of L-glutamine. Vero cells, obtained from ECACC, were suspended in culture medium and 25 μL was added to 384-well plates (2500 cells/well), which already contain the antiviral compounds. Typically, these plates contain a 5-fold serial dilution of 9 dilution steps of the test compound at 200 times the final concentration in 100% DMSO (200 nL). […] Finally, each plate contains wells which are assigned as virus controls (containing cells and virus in the absence of compound), cell controls (containing cells in the absence of virus and compound) and medium controls (containing medium in the absence of cells, virus and compounds). To the wells assigned as medium control, 25 μL of culture medium was added instead of Vero cells. Once the cells are added to the plates, the plates were incubated for 30 minutes at room temperature to allow the cells to distribute evenly within the wells. Next, the plates were incubated in a fully humidified incubator (37° C., 5% CO2) until the next day. Then, DENV-2 strain 16681, labeled with eGFP, was added at a multiplicity of infection (MOI) of 0.5.
Therefore, 15 μL of virus suspension was added to all the wells containing test compound and to the wells assigned as virus control. In parallel, 15 μL of culture medium was added to the medium and cell controls. Next, the plates were incubated for 3 days in a fully humidified incubator (37° C., 5% CO2). At the day of the read out, the eGFP fluorescence was measured using an automated fluorescence microscope at 488 nm (blue laser). Using an in-house LIMS system, inhibition dose response curves for each compound were calculated and the half maximal effective concentration (EC50) was determined. Therefore, the percent inhibition (I) for every test concentration is calculated using the following formula: I=100*(ST−SCC)/(SVC−SCC); ST, SCC and SVC are the amount of eGFP signal in the test compound, cell control and virus control wells, respectively. The EC50 represents the concentration of a compound at which the virus replication is inhibited with 50%, as measured by a 50% reduction of the eGFP fluorescent intensity compared to the virus control. The EC50 is calculated using linear interpolation (Table 1).

Data set [2] in a line: in vitro. The note with it: African green monkey.
Where [3] appears, read: Dengue virus, DENV2, Vero, 72 h.

In the case of `COc1cc(NC(C(=O)N2CCc3cc(F)c(C(F)(F)F)cc32)c2ccc(Cl)cc2)cc(OCCCC(=O)O)c1` (racemic) [Compound 3, 4-(3-((1-(4-chlorophenyl)-2-(5-fluoro-6-(trifluoromethyl)indolin-1-yl)-2-oxoethyl)amino)-5-methoxyphenoxy)butanoic acid], the EC50 in data set [1] (setting [3]) was 0.00056 µM. The CC50 in data set [2] was found to be 13 µM.

In data set [1] (setting [3]), `COc1cc(NC(C(=O)N2CCc3ccc(OC(F)(F)F)cc32)c2ccc(F)cc2OC)cc(OCCCC(=O)O)c1` (racemic) [Compound 6, 4-(3-((1-(4-fluoro-2-methoxyphenyl)-2-oxo-2-(6-(trifluoromethoxy)indolin-1-yl)ethyl)amino)-5-methoxyphenoxy)butanoic acid] showed an EC50 of 0.00063 µM. In data set [2], the CC50 is 12 µM.

In turn, `COc1cc(NC(C(=O)N2CCc3ccc(S(F)(F)(F)(F)F)cc32)c2ccc(Cl)cc2)cc(OCCCC(=O)O)c1` (racemic) [Compound 1, 4-(3-((1-(4-chlorophenyl)-2-oxo-2-(6-(pentafluoro-λ^6-sulfanyl)indolin-1-yl)ethyl)amino)-5-methoxyphenoxy)butanoic acid] registered an EC50 in data set [1] (setting [3]) of 0.00064 µM. The same compound came in with a CC50 in data set [2] of 13 µM.

The compound `COc1cc(NC(C(=O)N2CCc3sc(C(F)(F)F)cc32)c2ccc(Cl)cc2)cc(OCCCC(=O)O)c1` (racemic) [Compound 10, 4-(3-((1-(4-chlorophenyl)-2-oxo-2-(2-(trifluoromethyl)-5,6-dihydro-4H-thieno[3,2-b]pyrrol-4-yl)ethyl)amino)-5-methoxyphenoxy)butanoic acid] had a half-maximal effective concentration (EC50) in data set [1] (setting [3]) of 0.00052 µM. In addition, in data set [2], the CC50 amounted to 19 µM.

`COc1cc(NC(C(=O)N2CCc3c(C)cc(C(F)(F)F)cc32)c2ccc(Cl)cc2)cc(OCCCC(=O)O)c1` (single isomer, unassigned) [Compound 2A, 4-(3-((1-(4-chlorophenyl)-2-(4-methyl-6-(trifluoromethyl)indolin-1-yl)-2-oxoethyl)amino)-5-methoxyphenoxy)butanoic acid] displayed an EC50 in data set [1] of 0.015 µM. In data set [2], this compound showed a CC50 of 12 µM.

Consider `COc1cc(NC(C(=O)N2CCc3cc(F)c(OC(F)(F)F)cc32)c2ccc(Cl)cc2)cc(OCCCC(=O)O)c1` (racemic) [Compound 5, 4-(3-((1-(4-chlorophenyl)-2-(5-fluoro-6-(trifluoromethoxy)indolin-1-yl)-2-oxoethyl)amino)-5-methoxyphenoxy)butanoic acid], for which, in data set [1] (setting [3]), the EC50 stood at 0.00011 µM. The CC50 in data set [2] was found to be 10 µM.

In turn, `COc1cc(NC(C(=O)N2CCc3nc(OC)c(C(F)(F)F)cc32)c2ccc(Cl)cc2)cc(OCCCC(=O)O)c1` (racemic) [Compound 9, 4-(3-((1-(4-chlorophenyl)-2-(5-methoxy-6-(trifluoromethyl)-2,3-dihydro-1H-pyrrolo[3,2-b]pyridin-1-yl)-2-oxoethyl)amino)-5-methoxyphenoxy)butanoic acid] displayed an EC50 in data set [1] (setting [3]) of 0.00099 µM. This compound also gave a CC50 in data set [2] of 12 µM.

In data set [1] (setting [3]), `COc1cc(NC(C(=O)N2CCc3ccc(SC(F)(F)F)cc32)c2ccc(Cl)cc2)cc(OCCCC(=O)O)c1` (racemic) [Compound 11, 4-(3-((1-(4-chlorophenyl)-2-oxo-2-(6-((trifluoromethyl)thio)indolin-1-yl)ethyl)amino)-5-methoxyphenoxy)butanoic acid] displayed an EC50 of 0.00028 µM. This compound also displayed a CC50 in data set [2] of 13 µM.

As to `COc1cc(NC(C(=O)N2CCc3c(C)cc(C(F)(F)F)cc32)c2ccc(Cl)cc2)cc(OCCCC(=O)O)c1` (racemic) [Compound 2, 4-(3-((1-(4-chlorophenyl)-2-(4-methyl-6-(trifluoromethyl)indolin-1-yl)-2-oxoethyl)amino)-5-methoxyphenoxy)butanoic acid], the response in data set [1] (setting [3]) was half-maximal at 0.00038 µM (EC50). In data set [2], this compound gave a CC50 of 12 µM.

Consider `COc1cc(NC(C(=O)N2CCc3ccc(OC(F)(F)F)cc32)c2ccc(Cl)cc2OCCO)cc(OCCCC(=O)O)c1` (racemic) [Compound 8, 4-(3-((1-(4-chloro-2-(2-hydroxyethoxy)phenyl)-2-oxo-2-(6-(trifluoromethoxy)indolin-1-yl)ethyl)amino)-5-methoxyphenoxy)butanoic acid], for which the EC50 in data set [1] (setting [3]) came out at 0.00015 µM. The CC50 in data set [2] was found to be 13 µM.

In turn, `COc1cc(NC(C(=O)N2CCc3c(C)cc(OC(F)(F)F)cc32)c2ccc(Cl)cc2)cc(OCCCC(=O)O)c1` (racemic) [Compound 4, 4-(3-((1-(4-chlorophenyl)-2-(4-methyl-6-(trifluoromethoxy)indolin-1-yl)-2-oxoethyl)amino)-5-methoxyphenoxy)butanoic acid] came in with an EC50 in data set [1] (setting [3]) of 0.00011 µM. The compound also had a CC50 in data set [2] of 12 µM.

`COc1cc(NC(C(=O)N2CCc3cc(F)c(OC(F)(F)F)cc32)c2ccc(Cl)cc2)cc(OCCCC(=O)O)c1` (single isomer, unassigned) [Compound 5A, 4-(3-((1-(4-chlorophenyl)-2-(5-fluoro-6-(trifluoromethoxy)indolin-1-yl)-2-oxoethyl)amino)-5-methoxyphenoxy)butanoic acid] yielded an EC50 in data set [1] of 0.0023 µM. Further, the CC50 in data set [2] is 10 µM.

Turning to `COc1cc(NC(C(=O)N2CCc3ccc(S(F)(F)(F)(F)F)cc32)c2ccc(Cl)cc2)cc(OCCCC(=O)O)c1` (single isomer, unassigned) [Compound 1A, 4-(3-((1-(4-chlorophenyl)-2-oxo-2-(6-(pentafluoro-λ^6-sulfanyl)indolin-1-yl)ethyl)amino)-5-methoxyphenoxy)butanoic acid], the EC50 in data set [1] was 0.0013 µM. The compound also had a CC50 in data set [2] of 12 µM.

`COc1cc(NC(C(=O)N2CCc3ccc(OC(F)(F)F)cc32)c2ccc(F)cc2OC)cc(OCCCC(=O)O)c1` (single isomer, unassigned) [Compound 6A, 4-(3-((1-(4-fluoro-2-methoxyphenyl)-2-oxo-2-(6-(trifluoromethoxy)indolin-1-yl)ethyl)amino)-5-methoxyphenoxy)butanoic acid]: a half-maximal response in data set [1] (EC50) required 0.25 µM. The compound further showed a CC50 in data set [2] of 11 µM.
